PubChem BioAssay (NCI)
Where “and” joins values, the source holds several entries; their conditions need not be identical. Equal values may be shown once.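 Interpolation was linear, between the two tested concentrations surrounding the appropriate level; five concentrations were tested over 48 hours in 96-well plates. The concentration for 50% growth inhibition is given as GI50. The concentration for full growth arrest is given as TGI.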

Tests used:
Assay in all cases: NCI-60 cell line screen, 48 h
[1] = test system: A498 renal
[2] = test system: COLO 205 colon
[3] = test system: DU-145 prostate
[4] = test system: MALME-3M melanoma
[5] = test system: MOLT-4 leukemia
[6] = test system: NCI-H226 lung
[7] = test system: PC-3 prostate
[8] = test system: SK-MEL-2 melanoma
[9] = test system: SK-MEL-5 melanoma
[10] = test system: SN12C renal

Structure (SMILES): O=C(O)CP(=O)(c1ccccc1)c1ccccc1.O=C(O)CP(=O)(c1ccccc1)c1ccccc1.[Cd]
- GI50 [1]: 19.9 µM
- TGI [1]: 39.8 µM
- GI50 [2]: 31.8 µM
- TGI [2]: > 100 µM
- GI50 [3]: 19.4 µM
- TGI [3]: 41.3 µM
- GI50 [4]: 0.536 µM
- TGI [4]: 3.76 µM
- GI50 [5]: 33.4 µM
- TGI [5]: 52.4 µM
- GI50 [6]: 12.7 µM
- TGI [6]: 28.6 µM
- GI50 [7]: 18 µM
- TGI [7]: 35.1 µM
- GI50 [8]: 19.6 µM
- TGI [8]: 75.3 µM
- GI50 [9]: 2.19 µM
- TGI [9]: 13.3 µM
- GI50 [10]: 16.4 µM
- TGI [10]: 31.1 µM

Structure (SMILES): COc1cc(C(=O)Nc2cc(O)c(C/C=C(\C)CCC=C(C)C)c(O)c2)cc2c1O[C@]1(C)CC[C@@H](O)C(C)(C)[C@H]1C2
- GI50 [1]: 0.0623 µM and 0.0258 µM
- TGI [1]: 1.72 µM and 0.889 µM
- GI50 [2]: 0.386 µM and 0.678 µM
- TGI [2]: 4.25 µM and 5.32 µM
- GI50 [3]: 1.88 µM and 0.331 µM
- TGI [3]: 13.1 µM
- GI50 [4]: 0.3 µM and 1.24 µM
- TGI [4]: 7.46 µM
- GI50 [5]: 0.0298 µM
- TGI [5]: 1.54 µM
- GI50 [6]: 3.47 µM
- TGI [6]: 29 µM
- GI50 [7]: 0.0302 µM and 0.0463 µM
- TGI [7]: 17.8 µM
- GI50 [8]: 0.0833 µM and 0.215 µM
- TGI [8]: 3.08 µM
- GI50 [9]: 0.177 µM and 0.631 µM
- TGI [9]: 2.1 µM and 3.99 µM
- GI50 [10]: 1.95 µM and 2.44 µM
- TGI [10]: 19.9 µM

Structure (SMILES): CCCC(=O)Nc1ncnc2c1ncn2C1OC2COP(=O)(O)OC2C1OC(=O)CCC (centres undefined)
- TGI [1]: 92.8 µM
- GI50 [2]: > 1000 µM
- TGI [2]: > 1000 µM
- GI50 [3]: > 1000 µM
- TGI [3]: > 1000 µM
- GI50 [4]: > 1000 µM
- TGI [4]: > 1000 µM
- GI50 [5]: > 1000 µM
- TGI [5]: > 1000 µM
- GI50 [6]: > 1000 µM
- TGI [6]: > 1000 µM
- GI50 [7]: > 1000 µM
- TGI [7]: > 1000 µM
- GI50 [8]: > 1000 µM
- TGI [8]: > 1000 µM
- GI50 [9]: > 1000 µM
- TGI [9]: > 1000 µM
- GI50 [10]: > 1000 µM
- TGI [10]: > 1000 µM

Structure (SMILES): CC#CC(=O)N[C@H]1CCCN(c2c(F)cc(C(N)=O)c3[nH]c(C)c(C)c23)C1
- GI50 [1]: 12 µM
- TGI [1]: 26.6 µM
- GI50 [2]: 21.3 µM
- TGI [2]: 47 µM
- GI50 [3]: 26.1 µM
- TGI [3]: 88.5 µM
- GI50 [4]: 16.2 µM
- TGI [4]: 34.3 µM
- GI50 [5]: 18.8 µM
- TGI [5]: 93.6 µM
- GI50 [6]: 21.1 µM
- TGI [6]: 51.6 µM
- GI50 [7]: 21.5 µM
- TGI [7]: 62.2 µM
- GI50 [8]: 16.4 µM
- TGI [8]: 35.7 µM
- GI50 [9]: 17.9 µM
- TGI [9]: 31.9 µM
- GI50 [10]: 20.4 µM
- TGI [10]: 58.2 µM
